Values quoted from earlier work as cited in patent publication US20260199246A1, “LUMATEPERONE PHARMACEUTICAL COMPOSITION, AND LONG-ACTING MICROSPHERE SUSTAINED-RELEASE FORMULATION AND PREPARATION METHOD THEREFOR” (SICHUAN KELUN PHARMACEUTICAL RESEARCH INSTITUTE CO., LTD., priority 2022, published 2026).

Details: compared with risperidone

For CN1CCN2c3c(cccc31)[C@@H]1CN(CCCC(=O)c3ccc(F)cc3)CC[C@@H]12 [Lumiperone, Lumateperone], the “reduction of the risk of weight gain” value is listed as 13%.
